In one assay the test system is S. pneumoniae. Nature of the assay: MIC, broth microdilution. The format is cell-based, Streptococcus pneumoniae. A digest of the protocol:
(§1)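 Incubation ran for 16–20 h at 37 °C after setup per Clinical and Laboratory Standards Institute microdilution procedure. Growth was then observed to assign the MIC. Assays were replicated at least three times.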
For orientation: Dilution methods test growth across graded concentrations, often in twofold steps.

The next assay concerns S. pyogenes. The assay is described as follows: MIC, broth microdilution. The format is cell-based, Streptococcus pyogenes. A digest of the protocol:
as §1

The next assay has as its system H. influenzae. Nature of the assay: MIC, broth microdilution. The format is cell-based, Haemophilus influenzae. In a few lines:
as §1

A further assay deals with M. catarrhalis. The assay is described as follows: MIC, broth microdilution. Particulars: M. catarrhalis 13L332, Ery-S. Type of assay: cell-based, Moraxella catarrhalis. Here is the method: MICs were determined by the microdilution method according to the Clinical and Laboratory Standards Institute guidelines. Briefly, the stock solution of compounds and the reference antibiotics were diluted 2-fold in sterile 96-well plates with cation-adjusted Mueller-Hinton broth, and mixed with CAMHB-containing bacteria to give a final inoculum of 5 × 10^5 CFU/mL for broth microdilution experiments. […] Finally, the 96-well plates were incubated at 37 °C for 16–20 h to observe and record the results. The lowest concentration at which no bacterial growth could be observed visually was identified as the MICs of the compounds. The assay for MICs was replicated at least three times.

The subject of the next assay is S. aureus. The assay is described as follows: MICs and MBCs against selected S. aureus isolates. Type of assay: cell-based, Staphylococcus aureus.
Where [1] appears, read: Streptococcus pneumoniae, ATCC49619, S. pneumoniae ATCC49619, Ery-S, read-out: MIC.
[2] abbreviates: Streptococcus pneumoniae, S. pneumoniae 05O173, c-ermB, mef, read-out: MIC.
Where [3] appears, read: Streptococcus pneumoniae, S. pneumoniae 07P390, c-ermB, read-out: MIC.
The mark [4] stands for this setting: Streptococcus pyogenes, S. pyogenes 12-206, c-ermTR, read-out: MIC.
[5] abbreviates: Haemophilus influenzae, ATCC49247, H. influenzae ATCC49247, Azi-S, read-out: MIC.
The mark [6] stands for this setting: Moraxella catarrhalis, read-out: MIC.
Setting [7] is: S. pneumoniae 05O173, c-ermB, mef.
Where [8] appears, read: Staphylococcus aureus, MRSA, strain 1, MRSA, i-ermA.
Setting [9] is: Staphylococcus aureus, MRSA, strain 4, MRSA, i-ermA.
Setting [10] is: Staphylococcus aureus, MRSA, strain 5, MRSA, i-ermC.
Where [11] appears, read: Staphylococcus aureus, MRSA, strain 6, MRSA, c-ermB.
[12] abbreviates: Staphylococcus aureus, MRSA, strain 7, MRSA, c-ermB.
Where [13] appears, read: Staphylococcus aureus, MRSA, strain 10, MRSA, c-ermB.
[14] abbreviates: Staphylococcus aureus, MRSA, strain 11, MRSA, c-ermB.

Converted amounts (≈) assume the structure as drawn. Like-named read-outs stand apart in the source and are kept apart here.

Here are results for eight compounds from paper PMC11239830, “Synthetic macrolides overcoming MLSBK-resistant pathogens” (Cell Discovery, 2024).

For `CC[C@H]1OC(=O)[C@H](C)[C@@H](OC(=O)NCCCCCCCC#Cc2ccc3c(=O)c(C(=O)O)cn(C)c3c2)[C@H](C)[C@@H](O[C@@H]2O[C@H](C)C[C@H](N(C)C)[C@H]2O)[C@](C)(OC)C[C@@H](C)C(=O)[C@H](C)[C@H]2NC(=O)O[C@@]21C` [89g], the MIC is at most 0.008 µg/mL in the assay on S. pneumoniae (setting [1]); 16 µg/mL (≈ 16.3 µM) with S. pneumoniae (setting [2]); 0.25 µg/mL (≈ 0.255 µM) in the assay with S. pneumoniae (setting [3]); 1 µg/mL (≈ 1.02 µM) in the assay on S. pyogenes (setting [4]); 8 µg/mL (≈ 8.15 µM) with H. influenzae (setting [5]); 1 µg/mL (≈ 1.02 µM) in the assay on M. catarrhalis (setting [6]).
`CC[C@H]1OC(=O)[C@H](C)[C@@H](OC(=O)NCCCCCCCCc2ccc3c(=O)c(C(=O)O)cn(C)c3c2)[C@H](C)[C@@H](O[C@@H]2O[C@H](C)C[C@H](N(C)C)[C@H]2O)[C@](C)(OC)C[C@@H](C)C(=O)[C@H](C)[C@H]2NC(=O)O[C@@]21C` [90g]: the MIC was 8 µg/mL (≈ 8.24 µM) against S. pneumoniae (setting [7]); 0.03 µg/mL (≈ 0.0309 µM) in the assay with S. pneumoniae (S. pneumoniae 07P390, c-ermB); at most 0.008 µg/mL against S. pneumoniae (S. pneumoniae ATCC49619, Ery-S); 0.12 µg/mL (≈ 0.124 µM) in the assay on S. pyogenes (S. pyogenes 12-206, c-ermTR); 4 µg/mL (≈ 4.12 µM) against H. influenzae (H. influenzae ATCC49247, Azi-S); 2 µg/mL (≈ 2.06 µM) in the assay with M. catarrhalis.
For the compound `CC[C@H]1OC(=O)[C@H](C)[C@@H](OC(=O)NCCCOCCC#Cc2ccc3c(=O)c(C(=O)O)cn(C4CC4)c3c2)[C@H](C)[C@@H](O[C@@H]2O[C@H](C)C[C@H](N(C)C)[C@H]2O)[C@](C)(OC)C[C@@H](C)C(=O)[C@H](C)[C@H]2NC(=O)O[C@@]21C` [95c], the MIC was found to be 0.03 µg/mL (≈ 0.0301 µM) in the assay with S. pneumoniae (setting [1]); 4 µg/mL (≈ 4.02 µM) in the assay on S. pneumoniae (setting [2]); 0.25 µg/mL (≈ 0.251 µM) with S. pneumoniae (setting [3]); 0.5 µg/mL (≈ 0.502 µM) with S. pyogenes (setting [4]); 2 µg/mL (≈ 2.01 µM) with H. influenzae (setting [5]); 0.5 µg/mL (≈ 0.502 µM) with M. catarrhalis (setting [6]).
For `CC[C@H]1OC(=O)[C@H](C)[C@@H](OC(=O)NCCCOCCC#Cc2ccc3c(=O)c(C(=O)O)cn(CC)c3c2)[C@H](C)[C@@H](O[C@@H]2O[C@H](C)C[C@H](N(C)C)[C@H]2O)[C@](C)(OC)C[C@@H](C)C(=O)[C@H](C)[C@H]2NC(=O)O[C@@]21C` [95f], the MIC in the assay on S. pneumoniae (setting [1]) is at most 0.008 µg/mL; in the assay with S. pneumoniae (setting [2]), 4 µg/mL (≈ 4.07 µM); with S. pneumoniae (setting [3]), 0.12 µg/mL (≈ 0.122 µM); with S. pyogenes (setting [4]), 0.5 µg/mL (≈ 0.509 µM); in the assay on M. catarrhalis (setting [6]), 0.5 µg/mL (≈ 0.509 µM).
In the case of `CC[C@H]1OC(=O)[C@H](C)[C@@H](OC(=O)NCCCCOCCC#Cc2ccc3c(=O)c(C(=O)O)cn(C)c3c2)[C@H](C)[C@@H](O[C@@H]2O[C@H](C)C[C@H](N(C)C)[C@H]2O)[C@](C)(OC)C[C@@H](C)C(=O)[C@H](C)[C@H]2NC(=O)O[C@@]21C` [96g], the MIC in the assay on S. pneumoniae (setting [1]) was at most 0.008 µg/mL; in the assay on S. pneumoniae (setting [2]), 8 µg/mL (≈ 8.14 µM); in the assay with S. pneumoniae (setting [3]) it was 0.25 µg/mL (≈ 0.254 µM); with S. pyogenes (setting [4]) it was 0.5 µg/mL (≈ 0.509 µM); in the assay with H. influenzae (setting [5]), 2 µg/mL (≈ 2.03 µM); in the assay with M. catarrhalis (setting [6]), 0.5 µg/mL (≈ 0.509 µM).
Turning to `CC[C@H]1OC(=O)[C@H](C)[C@@H](OC(=O)NCCCCCCC#Cc2ccc3c(=O)c(C(=O)O)cn(C)c3c2)[C@H](C)[C@@H](O[C@@H]2O[C@H](C)C[C@H](N(C)C)[C@H]2O)[C@](C)(O)C[C@@H](C)CN(C)[C@H](C)[C@@H](O)[C@]1(C)O` [106g], the MIC in the assay with S. pneumoniae (setting [1]) stood at 0.25 µg/mL (≈ 0.265 µM); in the assay with S. pneumoniae (setting [2]), 128 µg/mL (≈ 136 µM); in the assay on S. pneumoniae (setting [3]), 4 µg/mL (≈ 4.24 µM); in the assay on S. pyogenes (setting [4]), 4 µg/mL (≈ 4.24 µM); in the assay with H. influenzae (setting [5]) it was 8 µg/mL (≈ 8.48 µM); in the assay on M. catarrhalis (setting [6]), 0.5 µg/mL (≈ 0.53 µM).
Take `CC[C@H]1OC(=O)[C@H](C)[C@@H](OC(=O)NCCCCCCCCc2ccc3c(=O)c(C(=O)O)cn(C)c3c2)[C@H](C)[C@@H](O[C@@H]2O[C@H](C)C[C@H](N(C)C)[C@H]2O)[C@](C)(O)C[C@@H](C)CN(C)[C@H](C)[C@@H](O)[C@]1(C)O` [107g]: the MIC in the assay on S. pneumoniae (setting [7]) was found to be 128 µg/mL (≈ 135 µM); against S. pneumoniae (S. pneumoniae 07P390, c-ermB) it was 4 µg/mL (≈ 4.22 µM); with S. pneumoniae (S. pneumoniae ATCC49619, Ery-S) it was 0.25 µg/mL (≈ 0.264 µM); with S. pyogenes (S. pyogenes 12-206, c-ermTR) it was 8 µg/mL (≈ 8.45 µM); against H. influenzae (H. influenzae ATCC49247, Azi-S), 8 µg/mL (≈ 8.45 µM); in the assay with M. catarrhalis, 1 µg/mL (≈ 1.06 µM).
One may read the MBC as the lowest tested concentration that kills the bacteria rather than only halting them. Take `CC[C@H]1OC(=O)[C@@](C)(F)C(=O)[C@H](C)[C@@H](O[C@@H]2O[C@H](C)C[C@H](N(C)C)[C@H]2O)[C@](C)(OC)C[C@@H](C)C(=O)[C@H](C)[C@H]2N(CCCCn3cc(-c4cccc(N)c4)nn3)C(=O)O[C@]12C` [solithromycin]: the MIC in the assay on S. pneumoniae (setting [1]) amounted to 0.016 µg/mL (≈ 0.0189 µM); with S. pneumoniae (setting [3]), 0.03 µg/mL (≈ 0.0355 µM); in the assay on S. pneumoniae (Streptococcus pneumoniae, S. pneumoniae PU09, mef, read-out: MIC), 0.5 µg/mL (≈ 0.592 µM); with S. pyogenes (Streptococcus pyogenes, S. pyogenes 01-968, i-ermTR (Table S5), read-out: MIC) it was 0.016 µg/mL (≈ 0.0189 µM); in the assay with S. pyogenes (Streptococcus pyogenes, S. pyogenes 12-206, c-ermB (Table S5), read-out: MIC) it was 0.03 µg/mL (≈ 0.0355 µM); in the assay on H. influenzae (setting [5]), 2 µg/mL (≈ 2.37 µM). The MIC in the assay with S. aureus (Staphylococcus aureus, ATCC29213, S. aureus ATCC29213 (Table S10), read-out: MIC) was 0.06 µg/mL (≈ 0.071 µM); in the assay with S. aureus (setting [8]) it was 0.06 µg/mL (≈ 0.071 µM); in the assay on S. aureus (setting [9]) it was 0.06 µg/mL (≈ 0.071 µM); in the assay on S. aureus (setting [10]), 0.06 µg/mL (≈ 0.071 µM); with S. aureus (setting [11]), 0.25 µg/mL (≈ 0.296 µM); against S. aureus (setting [12]), 0.5 µg/mL (≈ 0.592 µM). In addition, the MIC against S. aureus (setting [13]) came to 0.25 µg/mL (≈ 0.296 µM); with S. aureus (setting [14]) it was 0.25 µg/mL (≈ 0.296 µM); in the assay on S. aureus (Staphylococcus aureus, MSSA, strain 2, MSSA, i-ermC, read-out: MIC) it was 0.06 µg/mL (≈ 0.071 µM); in the assay with S. aureus (Staphylococcus aureus, MSSA, strain 3, MSSA, i-ermC, read-out: MIC), 0.06 µg/mL (≈ 0.071 µM); in the assay on S. aureus (Staphylococcus aureus, MSSA, strain 8, MSSA, c-ermB, read-out: MIC), 16 µg/mL (≈ 18.9 µM); in the assay with S. aureus (Staphylococcus aureus, MSSA, strain 9, MSSA, c-ermB, read-out: MIC) it was 32 µg/mL (≈ 37.9 µM). The MBC/MIC with S. aureus (S. aureus ATCC29213) is given as above 8; in the assay on S. aureus (strain 1, MRSA, i-ermA) it was above 8; against S. aureus (strain 2, MSSA, i-ermC), above 8; in the assay with S. aureus (strain 3, MSSA, i-ermC), above 8; in the assay on S. aureus (strain 4, MRSA, i-ermA), above 8; with S. aureus (strain 5, MRSA, i-ermC), 8. Also, the MBC/MIC is listed as above 8 in the assay on S. aureus (strain 6, MRSA, c-ermB); above 8 against S. aureus (strain 7, MRSA, c-ermB); 8 in the assay with S. aureus (strain 8, MSSA, c-ermB); above 8 with S. aureus (strain 9, MSSA, c-ermB); above 8 in the assay with S. aureus (strain 10, MRSA, c-ermB); above 8 in the assay with S. aureus (strain 11, MRSA, c-ermB). The minimal bactericidal concentration (MBC) against S. aureus (setting [8]) was above 0.5 µg/mL; with S. aureus (setting [9]), above 0.5 µg/mL; against S. aureus (setting [10]), 0.5 µg/mL (≈ 0.592 µM); with S. aureus (setting [11]), above 2 µg/mL; against S. aureus (setting [12]) it was above 4 µg/mL; with S. aureus (setting [13]), above 2 µg/mL. The minimum bactericidal concentration (MBC) is above 2 µg/mL in the assay on S. aureus (setting [14]); 128 µg/mL (≈ 151 µM) in the assay on S. aureus (Staphylococcus aureus, MSSA, strain 8, MSSA, c-ermB); above 256 µg/mL with S. aureus (Staphylococcus aureus, MSSA, strain 9, MSSA, c-ermB); above 0.5 µg/mL with S. aureus (Staphylococcus aureus, S. aureus ATCC29213, read-out: MBC); above 0.5 µg/mL in the assay with S. aureus (Staphylococcus aureus, strain 3, MSSA, i-ermC, read-out: MBC); above 0.5 µg/mL in the assay with S. aureus (strain 2, MSSA, i-ermC). In addition, in the assay with S. aureus (selected S. aureus isolates), the “bactericidal or bacteriostatic by MBC/MIC” value is given as “bacteriostatic against all selected isolates”.
